For data set [1], the species on record is Mus musculus. The experiment in a line: Compound was evaluated for its potency in CDF1 mice and the serum metabolite levels were determined. The format is ADME, organism-based.
Data set [2] is filed under the species Mus musculus. As to the kind of experiment: Evaluated for potency in CDF1 mice and the inhibition of body weight gain was determined. The format is functional.
Data set [3] is filed under the species Mus musculus. The experiment in a line: Evaluated for potency in CDF1 mice and the ability of it to decrease feed consumption was determined. The data set is classed as functional.
The species named for data set [4] is Mus musculus. The experiment in a line: Compound was evaluated for its potency in CDF1 mice and the serum cholesterol levels were determined. The data set is classed as ADME, organism-based.
The species entered for data set [5] is Mus musculus. As to the kind of experiment: Feed efficiency was calculated by dividing body weight gain by feed consumption in mouse. The format is functional.
The species named for data set [6] is Mus musculus. As to the kind of experiment: Compound was evaluated for its potency in CDF1 mice and the serum triglyceride levels were determined. The format is ADME, organism-based.
The species named for data set [7] is Mus musculus. The experiment in a line: Compound was evaluated for its potency in CDF1 mice and the abdominal fat weight was determined. The data set is classed as functional, Abdomen.

Each structure is given as a SMILES string.

`CC(C)CCC[C@@H](C)[C@H]1CC[C@H]2[C@@H]3C=CC4=CC(=O)C=C[C@]4(C)[C@H]3CC[C@]12C`: the Serum metabolite in data set [1] was determined as 0 mg/dL. In data set [2], this compound had a Body weight gain of 0.27 g/day. The compound further had a Feed consumption in data set [3] of 5.41 g/day. The compound further displayed a Serum cholesterol in data set [4] of 206.3 mg/dL. The Feed efficiency in data set [5] was 0.05. Moreover, the Serum triglyceride in data set [6] came out at 390.4 mg/dL.

For the compound `CC(C)CCC[C@@H](C)[C@H]1CC[C@H]2[C@@H]3C[C@@H](O)C4=CC(=O)CC[C@]4(C)[C@H]3CC[C@]12C`, in data set [7], the Abdominal fat worked out at 0.8 g. Besides, in data set [1], the Serum metabolite was 0 mg/dL. The same compound registered a Body weight gain in data set [2] of 0.28 g/day. The Feed consumption in data set [3] amounted to 5.7 g/day. In data set [4], the Serum cholesterol is 136.7 mg/dL. The Feed efficiency in data set [5] was 0.05. The compound also displayed a Serum triglyceride in data set [6] of 120 mg/dL.

For `CCCCCCCCC(=O)OC1CC[C@@]2(C)C(=CC[C@H]3[C@@H]4CC[C@H]([C@H](C)CCCC(C)C)[C@@]4(C)CC[C@@H]32)C1` (stereo partly specified), in data set [2], the Body weight gain came out at 0.52 g/day. Besides, the Feed consumption in data set [3] amounted to 5.28 g/day. The Feed efficiency in data set [5] was 0.1.

Take `CC(C)CCC[C@@H](C)[C@H]1CC[C@H]2[C@@H]3CC(=O)C4=CC(=O)CC[C@]4(C)[C@H]3CC[C@]12C`: in data set [7], the Abdominal fat turned out to be 0.3 g. The Serum metabolite in data set [1] turned out to be 0 mg/dL. Besides, the Body weight gain in data set [2] is -0.36 g/day. The Feed consumption in data set [3] amounted to 6 g/day. In data set [4], this compound displayed a Serum cholesterol of 110 mg/dL. Moreover, the Feed efficiency in data set [5] was -0.06. In addition, in data set [6], the Serum triglyceride came to 133.6 mg/dL.

`CC(C)CCC[C@@H](C)[C@H]1CC[C@H]2[C@@H]3CC=C4C=C(N5CCCC5)CC[C@]4(C)[C@H]3CC[C@]12C` came in with an Abdominal fat in data set [7] of 0.41 g. In data set [1], the Serum metabolite is 22 mg/dL. Besides, the Body weight gain in data set [2] is -0.18 g/day. In data set [3], this compound returned a Feed consumption of 6.1 g/day. In data set [4], this compound returned a Serum cholesterol of 158.1 mg/dL. The Feed efficiency in data set [5] was -0.03. Further, in data set [6], the Serum triglyceride stood at 277.7 mg/dL.

Compound `CC[C@H](CC[C@@H](C)[C@H]1CC[C@H]2[C@@H]3CCC4CC(O)CC[C@]4(C)[C@H]3CC[C@]12C)C(C)C` (stereo partly specified) registered a Body weight gain in data set [2] of 0.49 g/day. The Feed consumption in data set [3] was found to be 5.43 g/day. Moreover, the Feed efficiency in data set [5] was 0.09.

`CC(C)CCC[C@@H](C)[C@H]1CC[C@H]2[C@@H]3C[C@H](O)[C@]4(O)CC(=O)CC[C@]4(C)[C@H]3CC[C@]12C` returned a Body weight gain in data set [2] of 0.58 g/day. In data set [3], this compound gave a Feed consumption of 5.39 g/day. The Feed efficiency in data set [5] was 0.11.

For `CC[C@H](/C=C/[C@@H](C)[C@H]1CC[C@H]2[C@@H]3CC=C4CC(=O)CC[C@]4(C)[C@H]3CC[C@]12C)C(C)C`, the Body weight gain in data set [2] stood at 0.52 g/day. The same compound showed a Feed consumption in data set [3] of 6.37 g/day. The Feed efficiency in data set [5] is 0.08.

`CC(C)CCC[C@@H](C)[C@H]1CC[C@H]2[C@@H]3CC[C@H]4CC(O)CC[C@]4(C)[C@H]3CC[C@]12C` (stereo partly specified) had an Abdominal fat in data set [7] of 0.9 g. For the same compound, the Serum metabolite in data set [1] is 23 mg/dL. This compound also yielded a Body weight gain in data set [2] of 0.38 g/day. In data set [3], this compound gave a Feed consumption of 5.45 g/day. This compound yielded a Serum cholesterol in data set [4] of 148.1 mg/dL. Moreover, the Feed efficiency in data set [5] was 0.07. For the same compound, in data set [6], the Serum triglyceride came to 212.7 mg/dL.

Regarding `CC(C)CCC[C@@H](C)[C@H]1CC[C@H]2[C@@H]3CC=C4CC(OC(=O)c5ccccc5)CC[C@]4(C)[C@H]3CC[C@]12C` (stereo partly specified), in data set [2], the Body weight gain is 0.46 g/day. This compound also came in with a Feed consumption in data set [3] of 5.57 g/day. Besides, the Feed efficiency in data set [5] is 0.08.

Turning to `CC(C)CCC[C@@H](C)[C@H]1CC[C@H]2[C@@H]3CC[C@@]45O[C@@H]4C(=O)CC[C@]5(C)[C@H]3CC[C@]12C`, in data set [7], the Abdominal fat is on record as 1.12 g. In data set [1], the Serum metabolite was determined as 0 mg/dL. In data set [2], the Body weight gain came to 0.46 g/day. Besides, the Feed consumption in data set [3] was determined as 6.14 g/day. This compound registered a Serum cholesterol in data set [4] of 141.6 mg/dL. Also, the Feed efficiency in data set [5] is 0.08. In addition, the Serum triglyceride in data set [6] came to 218 mg/dL.

Compound `CC(=O)OC1=CC2=CC[C@H]3[C@@H]4CC[C@H]([C@H](C)CCCC(C)C)[C@@]4(C)CC[C@@H]3[C@@]2(C)CC1` showed an Abdominal fat in data set [7] of 1.03 g. For the same compound, the Serum metabolite in data set [1] is 22 mg/dL. The compound also yielded a Body weight gain in data set [2] of 0.33 g/day. The same compound had a Feed consumption in data set [3] of 5.64 g/day. This compound also returned a Serum cholesterol in data set [4] of 187.5 mg/dL. Besides, the Feed efficiency in data set [5] was 0.06. The Serum triglyceride in data set [6] came out at 119.9 mg/dL.

In data set [2], `CC(C)CCC[C@@H](C)[C@H]1CC[C@H]2[C@@H]3CCC4=C(CSc5ccccc5)C(=O)CC[C@]4(C)[C@H]3CC[C@]12C` returned a Body weight gain of 0.56 g/day. For the same compound, in data set [3], the Feed consumption amounted to 6.23 g/day. Moreover, the Feed efficiency in data set [5] is reported as 0.09.

Consider `CC[C@H](/C=C/[C@@H](C)[C@H]1CC[C@H]2[C@@H]3CC=C4CC(O)CC[C@]4(C)[C@H]3CC[C@]12C)C(C)C` (stereo partly specified), for which the Body weight gain in data set [2] was found to be 0.57 g/day. The Feed consumption in data set [3] was determined as 6.3 g/day. For the same compound, the Feed efficiency in data set [5] was 0.09.

Regarding `CC(C)CCC[C@@H](C)[C@H]1CC[C@H]2[C@@H]3C=CC4=CC(=O)CC[C@]4(C)[C@H]3CC[C@]12C`, the Abdominal fat in data set [7] is recorded as 0.9 g. Besides, in data set [1], the Serum metabolite stood at 22 mg/dL. The compound also yielded a Body weight gain in data set [2] of 0.32 g/day. Moreover, the Feed consumption in data set [3] worked out at 4.71 g/day. The Serum cholesterol in data set [4] stood at 112.7 mg/dL. Further, the Feed efficiency in data set [5] was 0.07. In data set [6], this compound gave a Serum triglyceride of 172.6 mg/dL.

Compound `CC(=O)OC1CC[C@@]2(C)C(=CC[C@H]3[C@@H]4CC[C@H]([C@H](C)CCCC(C)C)[C@@]4(C)CC[C@@H]32)C1` (stereo partly specified) displayed a Body weight gain in data set [2] of 0.52 g/day. The compound also registered a Feed consumption in data set [3] of 5.28 g/day. Besides, the Feed efficiency in data set [5] is given as 0.1.

With `CC(C)CCC[C@@H](C)[C@H]1CC[C@H]2[C@@H]3CC=C4CCCC[C@]4(C)[C@H]3CC[C@]12C`, the Serum metabolite in data set [1] stood at 0 mg/dL. Further, the Body weight gain in data set [2] amounted to 0.56 g/day. Also, in data set [3], the Feed consumption amounted to 6.95 g/day. Also, the Serum cholesterol in data set [4] was 165.8 mg/dL. Further, the Feed efficiency in data set [5] is on record as 0.08. Also, the Serum triglyceride in data set [6] came to 253.6 mg/dL.

Regarding `CC(C)CCC[C@@H](C)[C@H]1CC[C@H]2[C@@H]3CCC4C[C@@H](O)CC[C@]4(C)[C@H]3CC[C@]12C` (stereo partly specified), in data set [2], the Body weight gain was determined as 0.52 g/day. Further, the Feed consumption in data set [3] was 5.83 g/day. Further, in data set [5], the Feed efficiency was 0.09.

For `CC(C)CCC[C@@H](C)[C@H]1CC[C@H]2[C@@H]3CCC4CC(O)CC[C@]4(C)[C@H]3CC[C@]12C` (stereo partly specified), in data set [2], the Body weight gain turned out to be 0.58 g/day. For the same compound, in data set [3], the Feed consumption is 6.48 g/day. For the same compound, the Feed efficiency in data set [5] is recorded as 0.09.

`CC(C)CCC[C@@H](C)[C@H]1CC[C@H]2[C@@H]3CC[C@@H]4CC(=O)CC[C@]4(C)[C@H]3CC[C@]12C` displayed an Abdominal fat in data set [7] of 1.25 g. Besides, the Serum metabolite in data set [1] was found to be 22 mg/dL. This compound gave a Body weight gain in data set [2] of 0.5 g/day. Also, in data set [3], the Feed consumption turned out to be 5.39 g/day. This compound also registered a Serum cholesterol in data set [4] of 161.3 mg/dL. Also, the Feed efficiency in data set [5] is given as 0.09. Further, in data set [6], the Serum triglyceride was 291.2 mg/dL.

As to `CC(C)CCC[C@@H](C)[C@H]1CC[C@H]2[C@@H]3C[C@H](Br)[C@]4(Br)CC(=O)CC[C@]4(C)[C@H]3CC[C@]12C`, the Body weight gain in data set [2] came to 0.43 g/day. In data set [3], this compound yielded a Feed consumption of 5.72 g/day. Further, in data set [5], the Feed efficiency is reported as 0.08.

In the case of `CC(C)CCC[C@@H](C)[C@H]1CC[C@H]2[C@@H]3CCC4=C(Br)C(=O)CC[C@]4(C)[C@H]3CC[C@]12C`, in data set [2], the Body weight gain turned out to be 0.52 g/day. The compound further had a Feed consumption in data set [3] of 6.58 g/day. Besides, the Feed efficiency in data set [5] was 0.08.

Compound `CC(C)CCC[C@@H](C)[C@H]1CC[C@H]2[C@@H]3CC[C@@H]4CC(O)CC[C@]4(C)[C@H]3CC[C@]12C` (stereo partly specified) had a Body weight gain in data set [2] of 0.55 g/day. For the same compound, the Feed consumption in data set [3] worked out at 6.1 g/day. Besides, the Feed efficiency in data set [5] is on record as 0.09.

On to `CC(C)CCC[C@@H](C)[C@H]1CC[C@H]2[C@@H]3CCC4=CC(=O)C=C[C@]4(C)[C@H]3CC[C@]12C`, for which the Abdominal fat in data set [7] came to 0.61 g. Further, the Serum metabolite in data set [1] amounted to 0 mg/dL. Also, in data set [2], the Body weight gain turned out to be 0.15 g/day. The Feed consumption in data set [3] is 4.94 g/day. The compound also gave a Serum cholesterol in data set [4] of 165.4 mg/dL. The Feed efficiency in data set [5] is listed as 0.03. In data set [6], this compound registered a Serum triglyceride of 266.9 mg/dL.

For `CC(C)CCC[C@@H](C)[C@H]1CC[C@H]2[C@@H]3C[C@H](Br)C4=CC(=O)CC[C@]4(C)[C@H]3CC[C@]12C`, the Abdominal fat in data set [7] was determined as 0.81 g. Also, the Serum metabolite in data set [1] was determined as 22 mg/dL. This compound showed a Body weight gain in data set [2] of 0.26 g/day. Moreover, the Feed consumption in data set [3] was 4.2 g/day. In addition, the Serum cholesterol in data set [4] was 176.8 mg/dL. In addition, in data set [5], the Feed efficiency was 0.06. Besides, the Serum triglyceride in data set [6] is 257.3 mg/dL.

The values are drawn from ChEMBL document CHEMBL1130921, “The cholesterol metabolite cholest-4-en-3-one and its 3-oxo derivatives suppress body weight gain, body fat accumulation and serum lipid concentration in mice” (Bioorg Med Chem Lett, 1998).
